Results as given in US20220315554A1, “COMPOUNDS COMPRISING A […] LIGAND AND USE THEREOF” (priority 2019, published 2022).
Numbered stars: 1 amine (or outer) side, 2 acyl side, 3 side chain; on linkers, the order of the positions; unused ones are H or OH. Bridge positions count the residues as written; N and C are the ends. Square brackets hold non-standard residues; d marks the D form. Peptide text beside a SMILES is read from it. * marks the point of attachment. X24 = NCCNCC(CNCCN)C(=O)N[C@@H](CCC(=O)NC[C@H](O)[C@@H](O)[C@H](O)[C@H](O)CO)C(=O)NCCCOCCOCCOCCCN*; mXylylene = c1cc(C[*:1])cc(C[*:2])c1; PEG6 = NCCOCCOCCOCCOCCOCCOCCC(=O)O; Suc = O=C(CCC(=O)[*:2])[*:1]; 4Amb = NCc1ccc(C(=O)O)cc1; X18 = NCCNCC(CNCCN)C(=O)*; Nle = CCCC[C@H](N)C(=O)O; Hexanoyl = CCCCCC(=O)*

Columns and labels:
Human recombinant FAP [1] = target: T1, Human recombinant FAP (Homo sapiens, UniProt Q12884); assay: FRET-based FAP protease activity assay; type: biochemical; set-up: purchased R&D systems 3715-SE; conditions: pIC50 Category (Activity), FRET substrate, 37° C.
T1 sequence (Q12884 1-760): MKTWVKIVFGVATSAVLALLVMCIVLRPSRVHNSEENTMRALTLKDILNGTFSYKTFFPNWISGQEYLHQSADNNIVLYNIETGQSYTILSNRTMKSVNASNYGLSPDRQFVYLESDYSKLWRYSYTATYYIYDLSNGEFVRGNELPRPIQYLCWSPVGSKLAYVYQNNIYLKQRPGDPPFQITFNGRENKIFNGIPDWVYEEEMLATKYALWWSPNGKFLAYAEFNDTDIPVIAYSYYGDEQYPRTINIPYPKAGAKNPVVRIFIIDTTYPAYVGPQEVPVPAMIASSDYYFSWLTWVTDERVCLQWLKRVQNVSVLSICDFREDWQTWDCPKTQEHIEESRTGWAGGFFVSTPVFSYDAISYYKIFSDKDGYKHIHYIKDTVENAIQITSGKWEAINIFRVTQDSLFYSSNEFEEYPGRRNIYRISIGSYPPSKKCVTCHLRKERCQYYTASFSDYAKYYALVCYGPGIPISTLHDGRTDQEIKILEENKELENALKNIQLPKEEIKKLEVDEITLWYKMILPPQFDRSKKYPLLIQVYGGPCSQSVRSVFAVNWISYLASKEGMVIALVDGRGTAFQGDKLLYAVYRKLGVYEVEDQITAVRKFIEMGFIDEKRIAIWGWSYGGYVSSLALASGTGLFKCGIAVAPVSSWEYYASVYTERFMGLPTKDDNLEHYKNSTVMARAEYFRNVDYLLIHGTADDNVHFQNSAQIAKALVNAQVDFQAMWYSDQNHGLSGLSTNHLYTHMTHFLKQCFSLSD

Human recombinant FAP [2] = target: T1, Human recombinant FAP; assay: Surface plasmon resonance (Biacore) assay; type: binding
[3] = target: T2, FAP-expressing human WI-38 fibroblasts (Homo sapiens, UniProt Q12884); assay: Competitive FACS binding assay; conditions: pIC50 Category (FACS), competition with 3 nM Cy5-labeled compound, 4° C., 1 hour
T2 construct: FAP-expressing human WI-38 fibroblasts (ECACC) were cultured in EMEM; host or cells: WI-38 human fibroblasts
T2 sequence (Q12884 1-760): T1 sequence (Q12884 1-760)
Experimental: Cells were analyzed in an Attune NxT flow cytometer. […]

| IC50 (Human recombinant FAP [1]; recombinant human FAP) | Kd (Human recombinant FAP [2]) | IC50 ([3]; WI-38 fibroblasts) | IC50 (Human recombinant FAP [1]) | IC50 [3] | Structure (SMILES) |
| --- | --- | --- | --- | --- | --- |
| < 10 nM | < 10 nM | < 10 nM | – | – | CCCCCC(=O)N[C@H]1CSCc2cccc(c2)CSC[C@@H](C(=O)N[C@@H](CC(=O)O)C(=O)NCc2ccc(C(=O)N[C@@H](CCCNC(=N)N)C(N)=O)cc2)NC(=O)[C@H](Cc2ccccc2)NC(=O)[C@H](CCC(=O)O)NC(=O)[C@H]([C@@H](C)O)NC(=O)[C@@H]2CCCN2C(=O)[C@@H]2CCCN2C1=O [3BP-3301, Hex-[Cys(3MeBn)-Pro-Pro-Thr-Glu-Phe-Cys]-Asp-Pamb-Arg-NH2] (Hexanoyl-CPPTEFCD[4Amb]R-NH2; linker 1-7 via mXylylene) |
| – | < 10 nM | – | < 10 nM | < 10 nM | CCCCCC(=O)N[C@H]1CSCc2cc(CSCCNC(=O)CN3CCN(CC(=O)O)CCN(CC(=O)O)CCN(CC(=O)O)CC3)cc(c2)CSC[C@@H](C(=O)N[C@@H](CO)C(=O)O)NC(=O)[C@H](Cc2ccccc2)NC(=O)[C@H](CCC(N)=O)NC(=O)[C@H]([C@@H](C)O)NC(=O)[C@@H]2CCCN2C(=O)[C@@H]2CCCN2C1 [3BP-3658, Hex-[Cys(tMeBn(DOTA-AET))-Pro-Pro-Thr-Gln-Phe-Cys]-Ser-OH] |
| – | < 10 nM | – | < 10 nM | < 10 nM | CCCCCC(=O)N[C@H]1CSCc2cc(CSCCNC(=O)CN3CCN(CC(=O)O)CCN(CC(=O)O)CCN(CC(=O)O)CC3)cc(c2)CSC[C@@H](C(=O)N(C)CC(N)=O)NC(=O)[C@H](Cc2ccccc2)NC(=O)[C@H](CCC(N)=O)NC(=O)[C@H]([C@@H](C)O)NC(=O)[C@@H]2CCCN2C(=O)[C@@H]2CCCN2C1=O [3BP-3737, Hex-[Cys(tMeBn(DOTA-AET))-Pro-Pro-Thr-Gln-Phe-Cys]-Nmg-NH2] |
| – | < 10 nM | – | 10 to 79.4 nM | 10 to 79.4 nM | CCCC[C@H](NC(=O)CCC(=O)NCCCOCCOCCOCCCNC(=O)[C@H](CCC(=O)NC[C@H](O)[C@@H](O)[C@H](O)[C@H](O)CO)NC(=O)C(CNCCN)CNCCN)C(=O)N[C@H]1CSCc2cccc(c2)CSC[C@@H](C(=O)O)NC(=O)[C@H](Cc2ccccc2)NC(=O)[C@H](CCC(=O)O)NC(=O)[C@H]([C@@H](C)O)NC(=O)[C@@H]2CCCN2C(=O)[C@@H]2CCCN2C1=O [3BP-4246, N4Ac-Glu(AGLU)-Ttds-Nle-[Cys-(3MeBn)-Pro-Pro-Thr-Gln-Phe-Cys]-OH] ({X24-Suc}-[Nle]CPPTEFC-OH; linker 2-8 via mXylylene) |
| – | < 10 nM | – | 10 to 79.4 nM | 10 to 79.4 nM | CCCC[C@H](NC(=O)CCOCCOCCOCCOCCOCCOCCNC(=O)C(CNCCN)CNCCN)C(=O)N[C@H]1CSCc2cccc(c2)CSC[C@@H](C(=O)O)NC(=O)[C@H](Cc2ccccc2)NC(=O)[C@H](CCC(=O)O)NC(=O)[C@H]([C@@H](C)O)NC(=O)[C@@H]2CCCN2C(=O)[C@@H]2CCCN2C1=O [3BP-4221, N4Ac-PEG6-Nle-[Cys-(3MeBn)-Pro-Pro-Thr-Glu-Phe-Cys]-OH] ({X18-PEG6}-[Nle]CPPTEFC-OH; linker 2-8 via mXylylene) |

| Structure (SMILES) | IC50 (Human recombinant FAP [1]; recombinant human FAP) | Kd (Human recombinant FAP [2]) | IC50 ([3]; WI-38 fibroblasts) | IC50 (Human recombinant FAP [1]) | IC50 [3] |
| --- | --- | --- | --- | --- | --- |
| CCCCCC(=O)N[C@H]1CSCc2cc(CSCCNC(=O)CCCN(C)C(=O)c3ccccc3-c3c4ccc(=N)c(S(=O)(=O)O)c-4oc4c(S(=O)(=O)O)c(N)ccc34)cc(c2)CSC[C@@H](C(=O)O)NC(=O)[C@H](Cc2ccccc2)NC(=O)[C@H](CCC(N)=O)NC(=O)[C@H]([C@@H](C)O)NC(=O)[C@@H]2CCCN2C(=O)[C@@H]2CCCN2C1=O [3BP-4182, Hex-[Cys(tMeBn(ATTO488-AET))-Pro-Pro-Thr-Gln-Phe-Cys]-OH] | – | 10 to 79.4 nM | – | 10 to 79.4 nM | 10 to 79.4 nM |
| CCCCCC(=O)N[C@H]1CSCc2cc(CSCCNC(=O)CC[C@H](C(=O)O)N3CCN(CC(=O)O)CN(CC(=O)O)C3)cc(c2)CSC[C@@H](C(=O)O)NC(=O)[C@H](Cc2ccccc2)NC(=O)[C@H](CCC(N)=O)NC(=O)[C@H]([C@@H](C)O)NC(=O)[C@@H]2CCCN2C(=O)[C@@H]2CCCN2C1=O [3BP-4162, Hex-[Cys-(tMeBn(NODAGA-AET))-Pro-Pro-Thr-Gln-Phe-Cys]-OH] | – | < 10 nM | – | < 10 nM | < 10 nM |
| CCCCCC(=O)N[C@H]1CSCc2cc(CSCCNC(=O)CN3CCN4CCN5CCN(CC3)CC(=O)[O][Ga]([O]C(=O)C4)[O]C(=O)C5)cc(c2)CSC[C@@H](C(=O)O)NC(=O)[C@H](Cc2ccccc2)NC(=O)[C@H](CCC(N)=O)NC(=O)[C@H]([C@@H](C)O)NC(=O)[C@@H]2CCCN2C(=O)[C@@H]2CCCN2C1 [3BP-3949, Gallium-Complex of Hex-[Cys(tMeBn(DOTA-AET))-Pro-Pro-Thr-Gln-Phe-Cys]-OH] | – | < 10 nM | – | < 10 nM | < 10 nM |
